Measurements as given in paper PMC11284790, “Targeting Myeloperoxidase Ameliorates Gouty Arthritis: A Virtual Screening Success Story” (Journal of Medicinal Chemistry, 2024).
Where two headings read alike, the source gives them in different places.

Assays:
Human leukocyte MPO = Human leukocyte MPO (Homo sapiens, UniProt P05164); assay: MPO peroxidatic activity assay (AmplexRed oxidation); assay type: biochemical; parameters: Human leukocyte MPO (EC 1.7.1.11) was purchased from Planta Natural Products; purchased Planta Natural Products (Vienna, Austria); host or cells: human leukocytes
Procedure: MPO peroxidase activity was kinetically monitored using the artificial peroxidase substrate AmplexRed, which is oxidized to resorufin and can be detected by fluorescence.[34] Reactions were carried out in phosphate buffer (50 mM, pH 7.4), MPO (100 pM), cetyltrimethylammonium chloride (0.03%), diethylenetriaminepentaacetic acid (100 μM), AmplexRed (30 μM), and compounds (20 μM in 0.3% DMSO). The reaction was started by adding 2 μM hydrogen peroxide. The reaction product was assessed by fluorescence at λex = 530 and λem = 580 nm. The initial velocity was calculated by the slope of the linear regression in the first minutes of reaction. Inhibition is represented as a percentage of the control (vehicle).

MSU-induced paw edema = assay: MSU-induced paw edema, intraperitoneal treatment; assay type: in vivo; details: for effect on paw edema over time: i.p. 30 min before MSU, mefenamic acid 30 mg/kg, RL6 3, 10, 30, RL7 0.3, 3, 30, ZINC9089086 3, 10, 30 mg/kg, 6 h
Procedure: MSU-induced edema was performed as previously described.[22] The compounds were prepared by dilution in a solution containing 0.5% Tween 80 and 5% DMSO and then resuspended in PBS prior to administration. The animals were treated intraperitoneally (i.p.) with the following substances: vehicle (VEH: 5% DMSO; 0.5% Tween 80 in PBS), mefenamic acid (a nonsteroidal anti-inflammatory drug at a dosage of 30 mg/kg), RL6 (at doses of 3, 10, and 30 mg/kg), RL7 (at doses of 0.3, 3, and 30 mg/kg), or ZINC9089086 (at doses of 3, 10, and 30 mg/kg).[31] After 30 min, the mice were anesthetized using inhaled isoflurane (2% v/v in O2). A hypodermic syringe with a 31-gauge needle (BD, Franklin Lakes, NJ, USA) was used to administer the vehicle (VEH: PBS, 30 μL) or MSU (1.5 mg/30 μL) via the intraplantar route (i.pl.), into the right hind paw (Figure 9).
Paw volume (mL) was measured at various time points, including before injection (baseline, B), […] 1, 2, 3, 4, 5, and 6 h following MSU injection using a plethysmometer (Ugo Basile, Comerio, Italy) (Figure 7). For this, the injected hind paw was immersed into the dipping solution (6 mM NaCl diluted in distilled water and added with 2 mL/L of a wetting compound provided by the manufacturer) until the ankle. The extent of edema was quantified as a change in paw volume (Δ mL) by subtracting the basal paw volume from the volume of the paw measured at each time point. To evaluate the antiedematogenic effect of orally administered MPO inhibitors (p.o.), the animals were fasted for 1 h and then treated with equimolar doses of the following substances: vehicle (VEH: 5% DMSO; 0.5% tween 80 in PBS), mefenamic acid (30 mg/kg), RL 6 (33 mg/kg), RL 7 (54 mg/kg), RL 21 (30 mg/kg), or ZINC9089086 (34 mg/kg). After 1 h, the anesthetized mice (2% isoflurane, v/v in O2) received either the vehicle (PBS, 30 μL, i.pl.) or 1.5 mg/30 μL MSU (i.pl.). The paw volume was evaluated at the same time points as previously described. The percentage of edema inhibition by the compounds was calculated discounting the paw volume of mice that received oral or intraperitoneal vehicle and PBS intraplantar (VEH + VEH).

[1] = test system: total peroxidase activity; assay: Paw tissue total peroxidase activity after MSU; assay type: in vivo, male C57BL/6 mice; details: intraperitoneal pretreatment (RL6 30 mg/kg), tissue collected at 6 h
Procedure: After the assessment of paw edema was completed, the mice were immediately anesthetized by inhalation of 2% isoflurane mixture in oxygen (O2). Subsequently, the surface of the hind paws was collected for the measurement of total peroxidase activity, IL-6, and IL-1β. These tissue samples were then frozen using dry ice and stored at −80 °C until further analysis. The frozen tissues were later pulverized into a fine powder using liquid nitrogen and homogenized in a phosphate buffer (100 mM, pH 7.4). For the analysis of total peroxidase activity, a portion of this homogenate was mixed with hexadecyltrimethylammonium (1% HTAB, pH 6.0), vigorously vortexed, and sonicated. The resulting mixture was then centrifuged at 10,000g for 10 min, at 4 °C, and heated at 60 °C for 2 h. The sample of each supernatant was incubated with a solution containing 50 mM phosphate buffer, 0.164 mg/mL of o-dianisidine dihydrochloride, and H2O2 (0.0005%, pH 6.0). […] Each unit represents the capacity to degrade 1 μmol of H2O2 per minute.[81]

dHL-60 cells = assay: Cellular production of HOCl, PMA-activated dHL-60 cells; assay type: cell-based, human; details: 20 μM compound, 100 nM PMA, 1 h
Procedure: Human promyelocytic leukemic cells (HL-60) (BCRJ, RJ, Brazil) were cultivated in RPMI with fetal bovine serum (10%), penicillin (62 μg/mL), and streptomycin (100 μg/mL) at 37 °C in 5% CO2 atmosphere. HL-60 cells were differentiated to neutrophil-like (dHL-60) by DMSO (1.25%) during 4 days.[25]
Measurement of HOCl production by 1 × 10^6 dHL-60 or neutrophils was carried out in PBS (10 mM Na2HPO4, 2 mM KH2PO4, 0.5 mM MgCl2, 1 mM CaCl2, 140 mM NaCl, 5.5 mM dextrose, 100 μM diethylenetriaminepentaacetic acid, 5 mM taurine) in the presence of the compounds (20 μM in 0.3% DMSO) or 0.3% DMSO (control). Cells were activated with phorbol myristate acetate (100 nM) at 37 °C for 1 h. After incubation, cells were centrifuged at 1400 rpm for 10 min, and the supernatant was diluted threefold. Finally, 240 μL of this supernatant was added to 60 μL acetate buffer (400 mM, pH 5.4) containing NaI (100 μM) and TMB (2 mM in DMFO 10%). Taurine chloramine was quantified by TMB oxidation at 655 nm.[33] Inhibition of HOCl production was calculated as the percentage of the control (vehicle).

Chain of Human leukocyte MPO (P05164 279-745 limits assumed): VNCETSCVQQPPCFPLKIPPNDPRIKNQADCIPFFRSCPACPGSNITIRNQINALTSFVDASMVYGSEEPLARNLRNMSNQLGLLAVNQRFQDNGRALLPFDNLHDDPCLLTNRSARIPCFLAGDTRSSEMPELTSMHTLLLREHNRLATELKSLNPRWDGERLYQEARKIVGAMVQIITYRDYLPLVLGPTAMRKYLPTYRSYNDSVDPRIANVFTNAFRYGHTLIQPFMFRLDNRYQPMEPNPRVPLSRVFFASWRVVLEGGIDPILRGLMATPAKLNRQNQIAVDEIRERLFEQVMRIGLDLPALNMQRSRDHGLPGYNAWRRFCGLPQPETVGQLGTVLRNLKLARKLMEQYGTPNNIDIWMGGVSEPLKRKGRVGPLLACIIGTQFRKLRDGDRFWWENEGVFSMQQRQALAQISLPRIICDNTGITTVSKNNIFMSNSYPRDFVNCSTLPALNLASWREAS
Chain of Human leukocyte MPO (P05164 165-278 limits assumed): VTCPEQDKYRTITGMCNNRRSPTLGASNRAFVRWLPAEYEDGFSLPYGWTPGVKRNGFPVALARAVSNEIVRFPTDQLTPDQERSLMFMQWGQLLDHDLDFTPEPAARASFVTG

Structure (SMILES) | inhibition at 20 µM (Human leukocyte MPO; 20 μM compound, 100 pM MPO, 30 μM AmplexRed, 2 μM H2O2, pH 7.4, read-out: % Inhibition (at 20 μM) Peroxidatic) | inhibition at 20 µM (Human leukocyte MPO; supplementary csv copy of Table 1, read-out: % Inhibition (Peroxidatic)) | reduction of paw edema (time-dependent AUC) vs VEH + MSU (MSU-induced paw edema; 10 mg/kg i.p.) | reduction of paw edema (time-dependent AUC) vs VEH + MSU (MSU-induced paw edema; 30 mg/kg i.p.) | acute toxicity observed in mice (MSU-induced paw edema; during the in vivo tests) | effect on paw edema over time (MSU-induced paw edema) | reduction in total peroxidase activity in hind paw tissue [1] | inhibition of HOCl production in dHL-60 cells (dHL-60 cells) | % Inhibition (at 20 μM) Peroxidatic (Human leukocyte MPO; 20 μM compound, 100 pM MPO, 30 μM AmplexRed, 2 μM H2O2, pH 7.4) | % Inhibition (Peroxidatic) (Human leukocyte MPO; supplementary csv copy of Table 1) | reduction of paw edema (time-dependent AUC) vs VEH + MSU (MSU-induced paw edema; 3 mg/kg i.p.)
Nc1cc2c3c(cccc3c1)C(=O)N(N)C2=O [RL6] | 73 ± 13.4% | 73 ± 13.4% | 80.4% | 83.2% | no sign of acute toxicity | significantly prevented paw edema | 61.5% | significantly inhibited |  |  | 
CN1CCc2nc3sc(C(=O)Nc4cccc(C#N)c4)c(N)c3cc2C1 [RL7] |  |  |  | 90.2% |  | inhibited paw edema at all of the tested doses | unable to decrease | significantly inhibited | INACTIVE | INACTIVE | 82.8%
